Measured values published in patent publication US7241791B2, “Substituted 4-(indazol-3-yl)phenols” (Wyeth, priority 2002, dated 2007).
pEC50, pIC50: −log10 of the molar value.

Experiments:
human ERα [1] = target: T1, human ERα (Homo sapiens, UniProt P03372); assay: Creatine kinase expression (ER/CK) in Ad5-wt-hERα infected HAECT-1 cells; conditions: for ER/CK % E2: efficacy relative to the maximal stimulation observed with E2
T1 sequence (P03372 1-595): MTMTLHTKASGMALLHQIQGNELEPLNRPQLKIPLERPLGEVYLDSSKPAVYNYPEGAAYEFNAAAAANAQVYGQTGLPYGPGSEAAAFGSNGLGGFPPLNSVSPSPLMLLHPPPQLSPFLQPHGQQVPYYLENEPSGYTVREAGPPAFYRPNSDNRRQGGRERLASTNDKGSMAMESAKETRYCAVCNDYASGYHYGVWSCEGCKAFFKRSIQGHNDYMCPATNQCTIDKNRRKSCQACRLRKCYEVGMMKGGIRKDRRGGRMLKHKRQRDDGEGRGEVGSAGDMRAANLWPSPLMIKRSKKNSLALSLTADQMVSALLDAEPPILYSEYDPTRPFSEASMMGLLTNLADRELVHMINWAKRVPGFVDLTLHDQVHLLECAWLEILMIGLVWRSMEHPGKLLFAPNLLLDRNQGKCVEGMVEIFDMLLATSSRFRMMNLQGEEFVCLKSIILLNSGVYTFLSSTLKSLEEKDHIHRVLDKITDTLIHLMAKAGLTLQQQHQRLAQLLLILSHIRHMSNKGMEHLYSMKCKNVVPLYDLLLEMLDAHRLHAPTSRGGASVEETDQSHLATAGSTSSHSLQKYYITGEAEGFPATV

human ERα [2] = target: T1, human ERα; assay: IL-6 expression (ELISA, ER/IL-6) in Ad5-wt-hERα infected HAECT-1 cells; conditions: for ER/IL-6 % E2: efficacy relative to the maximal inhibition observed with E2
human ERα [3] = target: T1, human ERα; assay: NF-κB luciferase reporter (ER/NF-KB-luc) in Ad5-wt-hERα infected HAECT-1 cells; conditions: for pIC50: ER/NF-KB-luc IC50, Ad5-wt-ER infected HAECT-1 cells, IL-1β; for Emax: HAECT1, read-out: ER/NF-KB-luc % E2, efficacy relative to the maximal inhibition observed with E2

| pEC50 (human ERα [1]) | ER/CK % E2 (human ERα [1]) [% E2] | pIC50 (human ERα [2]) | ER/IL-6 % E2 (human ERα [2]) [% E2] | pIC50 (human ERα [3]) | Emax (human ERα [3]) [%] | Compound |
| --- | --- | --- | --- | --- | --- | --- |
| 6.28 | 30 | 6.94 | 49 | 6.50 | 67 | Oc1ccc(-c2nn(Cc3ccccc3)c3c(Cl)cccc23)c(O)c1 [Example 149, 4-(1-benzyl-7-chloro-1H-indazol-3-yl)benzene-1,3-diol] |
| 6.36 | 48 | 7.01 | 60 | 6.90 | 66 | Oc1ccc(-c2nn(Cc3ccccc3)c3c(F)cccc23)cc1 [Example 145, 4-(1-benzyl-7-fluoro-1H-indazol-3-yl)phenol] |
| 6.41 | 52 | 6.91 | 52 | 6.87 | 85 | Cn1nc(-c2ccc(O)cc2)c2cccc(Cl)c21 [Example 126, 4-(7-chloro-1-methyl-1H-indazol-3-yl)phenol] |
| 5.92 | 58 | 5.12 | 73 | 6.68 | 61 | COc1ccccc1-n1nc(-c2ccc(O)cc2O)c2ccc(O)cc21 [Example 12, 4-[6-hydroxy-1-(2-methoxyphenyl)-1H-indazol-3-yl]benzene-1,3-diol] |
| 6.44 | 38 | 7.19 | 65 | 7.19 | 69 | Cn1nc(-c2ccc(O)cc2)c2cccc(C(F)(F)F)c21 [Example 169, 4-[1-methyl-7-(trifluoromethyl)-1H-indazol-3-yl]phenol] |
| 6.09 | 65 | 6.42 | 72 | 6.71 | 82 | Oc1ccc(-c2n[nH]c3cc(Cl)c(F)cc23)cc1 [Example 131, 4-(6-chloro-5-fluoro-1H-indazol-3-yl)phenol] |
| 6.14 | 36 | 6.48 | 40 | 6.74 | 67 | CCCCn1nc(-c2ccc(O)cc2)c2ccccc21 [Example 139, 4-(1-butyl-1H-indazol-3-yl)phenol] |
| 6.08 | 47 | 6.22 | 83 | 6.88 | 97 | Oc1ccc(-c2nn(-c3ccc(OC(F)(F)F)cc3)c3cc(O)ccc23)c(O)c1 [Example 13, 4-{6-hydroxy-1-[4-(trifluoromethoxy)phenyl]-1H-indazol-3-yl}benzene-1,3-diol] |
| 6.36 | 45 | 7.09 | 58 | 7.02 | 79 | Oc1ccc(-c2nn(-c3ccccc3Cl)c3cc(O)ccc23)c(O)c1 [Example 16, 4-[1-(2-chlorophenyl)-6-hydroxy-1H-indazol-3-yl]benzene-1,3-diol] |
| 6.94 | 26 | 5.64 | 91 | 7.22 | 54 | COc1ccc(-n2nc(-c3ccc(O)cc3O)c3ccc(O)cc32)cc1 [Example 11, 4-[6-hydroxy-1-(4-methoxyphenyl)-1H-indazol-3-yl]benzene-1,3-diol] |
| – | – | 5.09 | 110 | 6.79 | 94 | N#Cc1ccc(-n2nc(-c3ccc(O)cc3O)c3ccc(O)cc32)cc1 [Example 15, 4-[3-(2,4-dihydroxyphenyl)-6-hydroxy-1H-indazol-1-yl]benzonitrile] |
| 5.74 | 54 | 6.61 | 77 | 7.05 | 92 | Oc1ccc(-c2nn(-c3ccc(Br)cc3)c3cc(O)ccc23)c(O)c1 [Example 7, 4-[1-(4-bromophenyl)-6-hydroxy-1H-indazol-3-yl]benzene-1,3-di I] |
| – | – | 6.12 | 67 | 7.28 | 73 | Oc1ccc(-c2nn(-c3cccc(Br)c3)c3cc(O)ccc23)c(O)c1 [Example 14, 4-[1-(3-bromophenyl)-6-hydroxy-1H-indazol-3-yl]benzene-1,3-diol] |
